The results in this text go back to patent US20110195900A1, “PEPTIDIC PTH RECEPTOR AGONISTS” (FERRING B.V., priority 2008, published 2011).

This assay has as its target T1, human PTH-1 receptor (Homo sapiens, UniProt Q03431).
T1 construct: expressed in transfected cells; host or cells: HEK-293
T1 sequence (Q03431 27-593): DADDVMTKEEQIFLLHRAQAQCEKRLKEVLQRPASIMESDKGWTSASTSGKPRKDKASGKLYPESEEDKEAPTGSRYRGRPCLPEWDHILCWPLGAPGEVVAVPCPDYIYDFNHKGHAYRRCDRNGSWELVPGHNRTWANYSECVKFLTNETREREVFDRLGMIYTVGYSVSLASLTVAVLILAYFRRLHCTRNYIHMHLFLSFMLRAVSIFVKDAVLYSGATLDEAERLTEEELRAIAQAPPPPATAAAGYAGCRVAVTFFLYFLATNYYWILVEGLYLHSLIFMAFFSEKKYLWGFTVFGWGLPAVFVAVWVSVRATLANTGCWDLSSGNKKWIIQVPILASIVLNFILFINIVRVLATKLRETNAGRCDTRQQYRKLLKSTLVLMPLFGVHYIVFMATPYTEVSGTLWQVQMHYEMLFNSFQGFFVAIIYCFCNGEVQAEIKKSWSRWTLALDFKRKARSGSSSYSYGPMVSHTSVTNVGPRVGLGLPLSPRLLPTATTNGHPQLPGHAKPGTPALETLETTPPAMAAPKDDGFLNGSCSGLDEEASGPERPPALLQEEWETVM
The assay is described as follows: Reporter gene assay (CRE-luciferase) for agonist activity in transiently transfected HEK-293 cells. The class given is cell-based. The note with it: for hPTHR-2/hPTHR-1: selectivity for hPTH-1 receptor over hPTH-2 receptor. The procedure, abridged: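 Selectivity came from luciferase transcriptional reporter assays expressing human PTH-2 receptor. PTH-1 agonism used transiently transfected HEK-293 cells carrying SV40-promoter receptor and cAMP-responsive-element luciferase; 4-5 h compound exposure, lysis, luminescence, non-linear-regression EC50/efficacy; ≥3 independent runs, PTH (1-34) control each.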

Where two headings read alike, the source gives them in different places. Non-standard residues stand in square brackets, D forms with d. Residues, ends and D or L forms follow the SMILES beside them. 1Nal = N[C@@H](Cc1cccc2ccccc12)C(=O)O; 2Nal = N[C@@H](Cc1ccc2ccccc2c1)C(=O)O; β3hI = CC[C@H](C)[C@H](N)CC(=O)O; β3hR = N=C(N)NCCC[C@H](N)CC(=O)O; β3hF = N[C@H](CC(=O)O)Cc1ccccc1; hSer = N[C@@H](CCO)C(=O)O; Nle = CCCC[C@H](N)C(=O)O; βAla = NCCC(=O)O

For `CCCC[C@H](NC(=O)[C@H](CC(C)C)NC(=O)[C@H](CCC(N)=O)NC(=O)[C@@H](NC(=O)[C@H](CCC(=O)O)NC(=O)[C@H](CO)NC(=O)[C@@H](NC(=O)[C@@H](N)CO)C(C)C)[C@@H](C)CC)C(=O)N[C@@H](Cc1c[nH]cn1)C(=O)N[C@@H](CC(N)=O)C(=O)N[C@@H](CC(C)C)C(=O)NCC(=O)N[C@@H](CCCCN)C(=O)N[C@@H](Cc1c[nH]cn1)C(=O)N[C@@H](CC(C)C)C(=O)N[C@@H](CC(N)=O)C(=O)N[C@@H](CO)C(=O)N[C@@H](CCCNC(=N)N)CC(=O)N[C@@H](CCC(=O)O)C(=O)N[C@@H](CCCNC(=N)N)C(=O)N[C@H](C(=O)N[C@@H](CCC(=O)O)C(=O)N[C@@H](Cc1ccc2ccccc2c1)C(=O)N[C@@H](CC(C)C)C(=O)N[C@@H](CCCNC(=N)N)C(=O)N[C@@H](CCCCN)C(=O)N[C@@H](CCCCN)C(=O)N[C@@H](CC(C)C)C(=O)N[C@@H](CCC(N)=O)C(=O)N[C@@H](CC(=O)O)C(=O)N[C@H](C(=O)N[C@@H](Cc1c[nH]cn1)C(=O)N[C@@H](CC(N)=O)C(=O)N[C@@H](Cc1ccccc1)C(N)=O)C(C)C)C(C)C` [SEQ ID NO: 54, [Nle^8, β-hArg^18,2-Nal^23] hPTH (1-34)-NH2] (H-SVSEIQL[Nle]HNLGKHLNS[β3hR]ERVE[2Nal]LRKKLQDVHNF-NH2), where the note is “Table 4 comparison data, ratio of EC50 values”, the “Selectivity hPTHR-2/hPTHR-1” value was 147.
Take `CCCC[C@H](NC(=O)[C@H](CC(C)C)NC(=O)[C@H](CCC(N)=O)NC(=O)[C@@H](NC(=O)[C@H](CCC(=O)O)NC(=O)[C@H](CO)NC(=O)[C@@H](NC(=O)[C@@H](N)CO)C(C)C)[C@@H](C)CC)C(=O)N[C@@H](Cc1c[nH]cn1)C(=O)N[C@@H](CC(N)=O)C(=O)N[C@@H](CC(C)C)C(=O)NCC(=O)N[C@@H](CCCCN)C(=O)N[C@@H](Cc1c[nH]cn1)C(=O)N[C@@H](CC(C)C)C(=O)N[C@@H](CC(N)=O)C(=O)N[C@@H](CO)C(=O)N[C@H](CC(=O)N[C@@H](CCC(=O)O)C(=O)N[C@@H](CCCNC(=N)N)C(=O)N[C@H](C(=O)N[C@@H](CCC(=O)O)C(=O)N[C@@H](Cc1cccc2ccccc12)C(=O)N[C@@H](CC(C)C)C(=O)N[C@@H](CCCNC(=N)N)C(=O)N[C@@H](CCCCN)C(=O)N[C@@H](CC(C)C)C(=O)N[C@@H](CC(C)C)C(=O)N[C@@H](CCC(N)=O)C(=O)N[C@@H](CC(=O)O)C(=O)N[C@H](C(=O)N[C@@H](Cc1c[nH]cn1)C(=O)N[C@@H](CCC(=O)O)C(=O)N[C@@H](Cc1ccccc1)C(N)=O)C(C)C)C(C)C)[C@@H](C)CC` [SEQ ID NO: 27, [Nle^8, β-hIle^18,1-Nal^23, Leu^27, Glu^33] hPTH (1-34)-NH2] (H-SVSEIQL[Nle]HNLGKHLNS[β3hI]ERVE[1Nal]LRKLLQDVHEF-NH2; N-terminus assumed): the EC50 (commonly the concentration needed to bring the measured effect to its halfway point) turned out to be 120 pM. Besides, the hPTHR-2/hPTHR-1 (Table 3, ratio of EC50 values) worked out at 344.
`CCCC[C@H](NC(=O)[C@H](CC(C)C)NC(=O)[C@H](CCC(N)=O)NC(=O)[C@@H](NC(=O)[C@H](CCC(=O)O)NC(=O)[C@H](CO)NC(=O)[C@@H](NC(=O)[C@@H](N)CO)C(C)C)[C@@H](C)CC)C(=O)N[C@@H](Cc1c[nH]cn1)C(=O)N[C@@H](CC(N)=O)C(=O)N[C@@H](CC(C)C)C(=O)NCC(=O)N[C@@H](CCCCN)C(=O)N[C@@H](Cc1c[nH]cn1)C(=O)N[C@@H](CC(C)C)C(=O)N[C@@H](CC(N)=O)C(=O)N[C@@H](CO)C(=O)N[C@H](CC(=O)N[C@@H](CCC(=O)O)C(=O)N[C@@H](CCCNC(=N)N)C(=O)N[C@H](C(=O)N[C@@H](CCC(=O)O)C(=O)N[C@@H](Cc1cccc2ccccc12)C(=O)N[C@@H](CC(C)C)C(=O)N[C@@H](CCCNC(=N)N)C(=O)N[C@@H](CCCCN)C(=O)N[C@@H](CCCCN)C(=O)N[C@@H](CC(C)C)C(=O)N[C@@H](CCC(N)=O)C(=O)N[C@@H](CC(=O)O)C(=O)N[C@H](C(=O)N[C@@H](Cc1c[nH]cn1)C(=O)N[C@@H](CC(N)=O)C(=O)N[C@@H](Cc1ccccc1)C(=O)O)C(C)C)C(C)C)[C@@H](C)CC` [SEQ ID NO: 8, [Nle^8, β-hIle^18,1-Nal^23] hPTH (1-34)-OH] (H-SVSEIQL[Nle]HNLGKHLNS[β3hI]ERVE[1Nal]LRKKLQDVHNF-OH): the EC50 (Table 3, HEK-293 cells, CRE-luciferase, 4-5 hours exposure, read-out: hPTHR-1 EC50) came to 210 pM. Besides, the hPTHR-2/hPTHR-1 (Table 3, ratio of EC50 values) was determined as 124.
`CCCC[C@H](NC(=O)[C@H](CC(C)C)NC(=O)[C@H](CCC(N)=O)NC(=O)[C@@H](NC(=O)[C@H](CCC(=O)O)NC(=O)[C@H](CO)NC(=O)[C@@H](NC(=O)[C@@H](N)CO)C(C)C)[C@@H](C)CC)C(=O)N[C@@H](Cc1c[nH]cn1)C(=O)N[C@@H](CC(N)=O)C(=O)N[C@@H](CC(C)C)C(=O)NCC(=O)N[C@@H](CCCCN)C(=O)N[C@@H](Cc1c[nH]cn1)C(=O)N[C@@H](CC(C)C)C(=O)N[C@@H](CC(N)=O)C(=O)N[C@@H](CO)C(=O)N[C@H](CC(=O)N[C@@H](CCC(=O)O)C(=O)N[C@@H](CCCNC(=N)N)C(=O)N[C@H](C(=O)N[C@@H](CCC(=O)O)C(=O)N[C@@H](Cc1cccc2ccccc12)C(=O)N[C@@H](CC(C)C)C(=O)N[C@@H](CCCNC(=N)N)C(=O)N[C@@H](CCCCN)C(=O)N[C@@H](CC(C)C)C(=O)N[C@@H](CC(C)C)C(=O)N[C@@H](CCC(N)=O)C(=O)N[C@@H](CC(=O)O)C(=O)N[C@H](C(=O)N[C@@H](Cc1c[nH]cn1)C(=O)N[C@@H](CC(N)=O)C(=O)N[C@@H](Cc1ccccc1)C(N)=O)C(C)C)C(C)C)Cc1ccccc1` [SEQ ID NO: 46, [Nle^8, β-hPhe^18,1-Nal^23, Leu^27] hPTH (1-34)-NH2] (H-SVSEIQL[Nle]HNLGKHLNS[β3hF]ERVE[1Nal]LRKLLQDVHNF-NH2) showed an EC50 of 110 pM. The hPTHR-2/hPTHR-1 (Table 3, ratio of EC50 values) came out at 94.
In turn, `CCCC[C@H](NC(=O)[C@H](CC(C)C)NC(=O)[C@H](CCC(N)=O)NC(=O)[C@@H](NC(=O)[C@H](CCC(=O)O)NC(=O)[C@H](CO)NC(=O)[C@@H](NC(=O)[C@@H](N)CO)C(C)C)[C@@H](C)CC)C(=O)N[C@@H](Cc1c[nH]cn1)C(=O)N[C@@H](CC(N)=O)C(=O)N[C@@H](CC(C)C)C(=O)NCC(=O)N[C@@H](CCCCN)C(=O)N[C@@H](Cc1c[nH]cn1)C(=O)N[C@@H](CC(C)C)C(=O)N[C@@H](CC(N)=O)C(=O)NCCC(=O)N[C@@H](CCOC)C(=O)N[C@@H](CCC(=O)O)C(=O)N[C@@H](CCCNC(=N)N)C(=O)N[C@H](C(=O)N[C@@H](CCC(=O)O)C(=O)N[C@@H](Cc1cccc2ccccc12)C(=O)N[C@@H](CC(C)C)C(=O)N[C@@H](CCCNC(=N)N)C(=O)N[C@@H](CCCCN)C(=O)N[C@@H](CC(C)C)C(=O)N[C@@H](CC(C)C)C(=O)N[C@@H](CCC(N)=O)C(=O)N[C@@H](CC(=O)O)C(=O)N[C@H](C(=O)N[C@@H](Cc1c[nH]cn1)C(=O)N[C@@H](CC(N)=O)C(=O)N[C@@H](Cc1ccccc1)C(N)=O)C(C)C)C(C)C` [SEQ ID NO: 16, [Nle^8, β-Ala^17, hSer(OMe)^18,1-Nal^23, Leu^27] hPTH (1-34)-NH2] (H-SVSEIQL[Nle]HNLGKHLN[βAla][hSer](Me)ERVE[1Nal]LRKLLQDVHNF-NH2) registered an EC50 of 130 pM. For the same molecule, the hPTHR-2/hPTHR-1 (Table 3, ratio of EC50 values) is recorded as 719.
